Results taken from patent publication US9650395B2, “Antibacterial compounds and methods for use” (PTC Therapeutics, Inc., priority 2011, dated 2017).
Converted amounts (≈) assume the structure as drawn.

Experiments:
[1] = test system: E. coli ELZ4251 (MDR clinical isolate); assay: Antibacterial activity, MIC, MDR E. coli ELZ4251; format: cell-based, Escherichia coli; conditions: Escherichia coli, E. coli ELZ4251, MDR clinical isolate; read-out: MIC ELZ4251
[2] = test system: Haemophilus influenzae (H. influenzae) 49247; assay: Antibacterial activity, MIC, H. influenzae 49247; format: cell-based; conditions: Haemophilus influenzae; H. influenzae 49247; read-out: MIC 49247
How it was run: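 Antibacterial activity against the Gram-negative organism Haemophilus influenzae strain 49247 was measured by microbroth dilution. The minimum inhibitory concentration (MIC) was taken as the lowest drug concentration that stopped bacterial growth from being visible to the naked eye under the test conditions.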

[3] = test system: E. coli ELZ4000 (MDR clinical isolate); assay: Antibacterial activity, MIC, MDR E. coli ELZ4000; format: cell-based, Escherichia coli; conditions: Escherichia coli; E. coli ELZ4000, MDR clinical isolate; read-out: MIC ELZ4000
[4] = test system: Pseudomonas aeruginosa (P. aeruginosa) 27853; assay: Antibacterial activity, MIC, P. aeruginosa 27853; format: cell-based; conditions: Pseudomonas aeruginosa, P. aeruginosa 27853; read-out: MIC 27853
Text: (§1) The antibacterial activity from a microbroth dilution method may be presented as the minimum inhibitory concentration (MIC in […]). The MIC value is the lowest concentration of a drug which prevents macroscopically visible bacterial growth under test conditions.
Antibacterial activity of test compounds against the Gram-negative bacterium Pseudomonas aeruginosa (P. aeruginosa) 27853 is shown in Table 5.

[5] = test system: Neisseria meningitidis (N. meningitidis) 13090; assay: Antibacterial activity, MIC, N. meningitidis 13090; format: cell-based; conditions: Neisseria meningitidis; N. meningitidis 13090; read-out: MIC 13090
[6] = test system: quinolone resistant E. coli LZ3111; assay: Antibacterial activity, MIC, quinolone resistant E. coli LZ3111; format: cell-based, Escherichia coli; conditions: Escherichia coli, read-out: MIC, LZ3111
Text: as §1
Mutations in these regions are known to confer a high level resistance to the quinolone class of antibiotics.

[7] = test system: Moraxella catarrhalis (M. catarrhalis) 25238; assay: Antibacterial activity, MIC, M. catarrhalis 25238; format: cell-based; conditions: Moraxella catarrhalis, M. catarrhalis 25238; read-out: MIC 25238
[8] = test system: Klebsiella pneumoniae (K. pneumoniae) 35657; assay: Antibacterial activity, MIC, K. pneumoniae 35657; format: cell-based; conditions: Klebsiella pneumoniae
[9] = test system: resistant K. pneumoniae MXX1232 (MDR clinical isolate); assay: Antibacterial activity, MIC, resistant K. pneumoniae MXX1232; format: cell-based, Klebsiella pneumoniae; conditions: Klebsiella pneumoniae; resistant K. pneumoniae MMX1232, MDR clinical isolate; read-out: MIC MMX1232
[10] = test system: Acinetobacter baumannii (A. baumannii) BAA747; assay: Antibacterial activity, MIC, A. baumannii BAA747; format: cell-based; conditions: Acinetobacter baumannii; A. baumannii BAA747; read-out: MIC BAA747
[11] = test system: resistant A. baumannii MXX2240 (MDR clinical isolate); assay: Antibacterial activity, MIC, resistant A. baumannii MXX2240; format: cell-based, Acinetobacter baumannii; conditions: Acinetobacter baumannii, resistant A. baumannii MMX2240, MDR clinical isolate; read-out: MIC MMX2240
[12] = test system: super sensitive Gram-negative Escherichia coli (E. coli) BAS849; assay: Antibacterial activity, microbroth dilution MIC, E. coli BAS849; format: cell-based; conditions: Escherichia coli; E. coli BAS849, microbroth dilution; read-out: MIC, BAS849
[13] = test system: control Gram-negative E. coli 25922 strain; assay: Antibacterial activity, microbroth dilution MIC, E. coli 25922; format: cell-based, Escherichia coli; conditions: Escherichia coli; E. coli 25922, microbroth dilution; read-out: MIC, 25922
[14] = test system: Gram-positive Staphylococcus aureus (S. aureus) 29213; assay: Antibacterial activity, microbroth dilution MIC, S. aureus 29213; format: cell-based; conditions: Staphylococcus aureus; S. aureus 29213, microbroth dilution; read-out: MIC, 29213

SMILES | MIC [1] [µg/mL] | MIC [2] [µg/mL] | MIC [3] [µg/mL] | MIC [4] [µg/mL] | MIC [5] [µg/mL] | MIC [6] [µg/mL] | MIC [7] [µg/mL] | MIC [8] [µg/mL] | MIC [9] [µg/mL] | MIC [10] [µg/mL] | MIC [11] [µg/mL] | MIC [12] [µg/mL] | MIC [13] [µg/mL] | MIC [14] [µg/mL]
Cc1c(-c2ccc(N(C)C)cc2)[nH]c(=O)c(C(=O)O)c1O [Cpd 5, 6-[4-(dimethylamino)phenyl]-4-hydroxy-5-methyl-2-oxo-1,2-dihydropyridine-3-carboxylic acid] | 1 to 3.5 (≈ 3.47 to 12.1 µM) | 1 to 3.5 (≈ 3.47 to 12.1 µM) | 3.5 to 12.5 (≈ 12.1 to 43.4 µM) | 12.5 to 150 (≈ 43.4 to 520 µM) | < 1 | 1 to 3.5 (≈ 3.47 to 12.1 µM) | 1 to 3.5 (≈ 3.47 to 12.1 µM) | 12.5 to 150 (≈ 43.4 to 520 µM) | 12.5 to 150 (≈ 43.4 to 520 µM) | 3.5 to 12.5 (≈ 12.1 to 43.4 µM) | < 1 | < 1 | 12.5 to 150 (≈ 43.4 to 520 µM) | 12.5 to 150 (≈ 43.4 to 520 µM)
CCc1cc(C(=O)O)c(=O)[nH]c1-c1ccc(N(C)C)nc1 [Cpd 86, 6-[6-(dimethylamino)pyridin-3-yl]-5-ethyl-2-oxo-1,2-dihydropyridine-3-carboxylic acid] | – | < 1 | – | 12.5 to 150 (≈ 43.5 to 522 µM) | < 1 | 12.5 to 150 (≈ 43.5 to 522 µM) | 1 to 3.5 (≈ 3.48 to 12.2 µM) | 12.5 to 150 (≈ 43.5 to 522 µM) | 12.5 to 150 (≈ 43.5 to 522 µM) | 12.5 to 150 (≈ 43.5 to 522 µM) | 12.5 to 150 (≈ 43.5 to 522 µM) | 1 to 3.5 (≈ 3.48 to 12.2 µM) | 12.5 to 150 (≈ 43.5 to 522 µM) | 12.5 to 150 (≈ 43.5 to 522 µM)
CCc1c(-c2ccc(N(C)C)cc2)[nH]c(=O)c(C(=O)O)c1O [Cpd 90, 6-[4-(dimethylamino)phenyl]-5-ethyl-4-hydroxy-2-oxo-1,2-dihydropyridine-3-carboxylic acid] | 12.5 to 150 (≈ 41.3 to 496 µM) | – | 12.5 to 150 (≈ 41.3 to 496 µM) | 12.5 to 150 (≈ 41.3 to 496 µM) | < 1 | 12.5 to 150 (≈ 41.3 to 496 µM) | < 1 | 3.5 to 12.5 (≈ 11.6 to 41.3 µM) | 12.5 to 150 (≈ 41.3 to 496 µM) | 1 to 3.5 (≈ 3.31 to 11.6 µM) | 3.5 to 12.5 (≈ 11.6 to 41.3 µM) | < 1 | 1 to 3.5 (≈ 3.31 to 11.6 µM) | 3.5 to 12.5 (≈ 11.6 to 41.3 µM)
CCc1cc(C(=O)O)c(=O)[nH]c1-c1ccc(N2C[C@@H]3[C@@H](N)[C@@H]3C2)cc1 [Cpd 177, 6-{4-[(1R,5S,6s)-6-amino-3-azabicyclo[3.1.0]hex-3-yl]phenyl}-5-ethyl-2-oxo-1,2-dihydropyridine-3-carboxylic acid] | 12.5 to 150 (≈ 36.8 to 442 µM) | – | 12.5 to 150 (≈ 36.8 to 442 µM) | 1 to 3.5 (≈ 2.95 to 10.3 µM) | < 1 | 12.5 to 150 (≈ 36.8 to 442 µM) | < 1 | < 1 | 12.5 to 150 (≈ 36.8 to 442 µM) | 1 to 3.5 (≈ 2.95 to 10.3 µM) | 12.5 to 150 (≈ 36.8 to 442 µM) | < 1 | < 1 | 12.5 to 150 (≈ 36.8 to 442 µM)
CCc1cc(C(=O)O)c(=O)[nH]c1-c1ccc(N2C[C@@H]3[C@H](C2)[C@H]3NCc2ccccc2)cc1 [Cpd 178, 6-{4-[(1R,5S,6s)-6-(benzylamino)-3-azabicyclo[3.1.0]hex-3-yl]phenyl}-5-ethyl-2-oxo-1,2-dihydropyridine-3-carboxylic acid] | 12.5 to 150 (≈ 29.1 to 349 µM) | – | 12.5 to 150 (≈ 29.1 to 349 µM) | 12.5 to 150 (≈ 29.1 to 349 µM) | – | 12.5 to 150 (≈ 29.1 to 349 µM) | – | < 1 | 12.5 to 150 (≈ 29.1 to 349 µM) | 1 to 3.5 (≈ 2.33 to 8.15 µM) | 12.5 to 150 (≈ 29.1 to 349 µM) | < 1 | < 1 | 12.5 to 150 (≈ 29.1 to 349 µM)
CCc1c(-c2ccc(N3C[C@H]4CCN[C@H]4C3)cc2)[nH]c(=O)c(C(=O)O)c1O.Cl [Cpd 246, 5-ethyl-6-{4-[(3aR,6aR)-hexahydropyrrolo[3,4-b]pyrrol-5(1H)-yl]phenyl}-4-hydroxy-2-oxo-1,2-dihydropyridine-3-carboxylic acid hydrochloride] | 3.5 to 12.5 | 1 to 3.5 | 12.5 to 150 | 12.5 to 150 | 1 to 3.5 | – | 3.5 to 12.5 | 1 to 3.5 | 12.5 to 150 | 12.5 to 150 | 12.5 to 150 | < 1 | 1 to 3.5 | 12.5 to 150
CCc1c(-c2ccc(N3CCCC3)nc2)[nH]c(=O)c(C(=O)O)c1O [Cpd 336, 5-ethyl-4-hydroxy-2-oxo-6-(6-(pyrrolidin-1-yl)pyridin-3-yl)-1,2-dihydropyridine-3-carboxylic acid] | – | – | – | 12.5 to 150 (≈ 38 to 455 µM) | – | 3.5 to 12.5 (≈ 10.6 to 38 µM) | – | 12.5 to 150 (≈ 38 to 455 µM) | 12.5 to 150 (≈ 38 to 455 µM) | 12.5 to 150 (≈ 38 to 455 µM) | 12.5 to 150 (≈ 38 to 455 µM) | 1 to 3.5 (≈ 3.04 to 10.6 µM) | 12.5 to 150 (≈ 38 to 455 µM) | 12.5 to 150 (≈ 38 to 455 µM)
